In ChEMBL document CHEMBL4251741, “Amidate Prodrugs of Cyclic 9-(S)-[3-Hydroxy-2-(phosphonomethoxy)propyl]adenine with Potent Anti-Herpesvirus Activity” (ACS Med Chem Lett, 2018):

What was measured:
Human alphaherpesvirus 3 [1] = assay: Antiviral activity against thymidine kinase expressing Varicella-Zoster virus Oka assessed as inhibition of plaque formation measured after 5 days post-infection; type: functional, organism-based; conditions: Human alphaherpesvirus 3, strain Oka vaccine, 120 h
Human betaherpesvirus 5 [2] = assay: Antiviral activity against Human cytomegalovirus AD169 infected in HEL cells assessed as inhibition of virus-induced cytopathic effect measured after 6 to 7 days post-infection; type: functional, organism-based; conditions: Human betaherpesvirus 5, AD169, HEL
Human alphaherpesvirus 3 [3] = assay: Antiviral activity against thymidine kinase deficient Varicella-Zoster virus 07-1 assessed as inhibition of plaque formation measured after 5 days post-infection; type: functional, organism-based; conditions: Human alphaherpesvirus 3, 07-1, 120 h
[4] = Cytotoxicity against HEL cells assessed as reduction in cell viability after 3 days by coulter counting method; type: cell-based; conditions: human
Human alphaherpesvirus 2 = assay: Antiviral activity against Herpes simplex virus 2 G infected in HEL cells assessed as inhibition of virus-induced cytopathic effect measured after 2 to 3 days post-infection; type: functional, organism-based; conditions: Human alphaherpesvirus 2, strain G
Human alphaherpesvirus 1 [5] = assay: Antiviral activity against ACV-resistant thymidine kinase deficient Herpes simplex virus 1 KOS infected in HEL cells assessed as inhibition of virus-induced cytopathic effect measured after 2 to 3 days post-infection; type: functional, organism-based; conditions: Human alphaherpesvirus 1, KOS
[6] = Half life in human plasma at 1 uM by HPLC-MS/MS analysis; type: ADME, cell-free
[7] = Cytotoxicity against HEL cells assessed as morphological changes after 3 days by microscopic analysis; type: cell-based; conditions: human
Human alphaherpesvirus 1 [8] = assay: Antiviral activity against Herpes simplex virus 1 KOS infected in HEL cells assessed as inhibition of virus-induced cytopathic effect measured after 2 to 3 days post-infection; type: functional, organism-based; conditions: Human alphaherpesvirus 1, KOS
Human betaherpesvirus 5 [9] = assay: Antiviral activity against Human cytomegalovirus Davis infected in HEL cells assessed as inhibition of virus-induced cytopathic effect measured after 6 to 7 days post-infection; type: functional, organism-based; conditions: Human betaherpesvirus 5, Davis
[10] = Half life in human liver microsomes at 0.1 uM in presence of NADPH-generating system by HPLC-MS/MS analysis; type: ADME, microsome
[11] = Selectivity index, ratio of CC50 for HEL cells to EC50 for thymidine kinase deficient Varicella-Zoster virus 07-1 infected in HEL cells; type: toxicity, cell-based; conditions: human, read-out: Ratio CC50/EC50
[12] = Selectivity index, ratio of CC50 for HEL cells to EC50 for Human cytomegalovirus AD169 infected in HEL cells; type: toxicity, cell-based; conditions: read-out: Ratio CC50/EC50
[13] = Selectivity index, ratio of CC50 for HEL cells to EC50 for ACV-resistant thymidine kinase deficient Herpes simplex virus 1 KOS infected in HEL cells; type: toxicity, cell-based; conditions: human, read-out: Ratio CC50/EC50
[14] = Selectivity index, ratio of CC50 for HEL cells to EC50 for thymidine kinase expressing Varicella-Zoster virus Oka infected in HEL cells; type: toxicity, cell-based; conditions: human, read-out: Ratio CC50/EC50
[15] = Selectivity index, ratio of CC50 for HEL cells to EC50 for Herpes simplex virus 1 KOS infected in HEL cells; type: toxicity, cell-based; conditions: human, read-out: Ratio CC50/EC50
[16] = Selectivity index, ratio of CC50 for HEL cells to EC50 for Herpes simplex virus 2 G infected in HEL cells; type: toxicity, cell-based; conditions: human, read-out: Ratio CC50/EC50
[17] = Selectivity index, ratio of CC50 for HEL cells to EC50 for Human cytomegalovirus Davis infected in HEL cells; type: toxicity, cell-based; conditions: read-out: Ratio CC50/EC50

CCCCCOC(=O)[C@H](CC(C)C)NP1(=O)CO[C@@H](Cn2cnc3c(N)ncnc32)CO1 (stereo partly drawn)
EC50 (Human alphaherpesvirus 3 [1]): 0.47 nM | EC50 (Human betaherpesvirus 5 [2]): 5.7 nM | EC50 (Human alphaherpesvirus 3 [3]): 0.59 nM | CC50 at 72 h [4]: 1620 nM | EC50 (Human alphaherpesvirus 2): 1.9 nM | EC50 (Human alphaherpesvirus 1 [5]): 1.3 nM | half-life at 1 µM [6]: 84 min | MCC at 72 h [7]: 4.27 µM | EC50 (Human alphaherpesvirus 1 [8]): 1.3 nM | EC50 (Human betaherpesvirus 5 [9]): 3.8 nM | half-life at 0.1 µM [10]: 16 min

CCCCCOC(=O)[C@H](C)NP1(=O)CO[C@@H](Cn2cnc3c(N)ncnc32)CO1 (stereo partly drawn)
EC50 (Human alphaherpesvirus 3 [1]): 2 nM | EC50 (Human betaherpesvirus 5 [2]): 64 nM | EC50 (Human alphaherpesvirus 3 [3]): 4.3 nM | CC50 at 72 h [4]: 3400 nM | EC50 (Human alphaherpesvirus 2): 17 nM | EC50 (Human alphaherpesvirus 1 [5]): 10 nM | MCC at 72 h [7]: 23.5 µM | EC50 (Human alphaherpesvirus 1 [8]): 20 nM | EC50 (Human betaherpesvirus 5 [9]): 65 nM

CCCCCOC(=O)[C@@H](NP1(=O)CO[C@@H](Cn2cnc3c(N)ncnc32)CO1)C(C)C (stereo partly drawn)
EC50 (Human alphaherpesvirus 3 [1]): 0.57 nM | EC50 (Human betaherpesvirus 5 [2]): 5.9 nM | EC50 (Human alphaherpesvirus 3 [3]): 1.5 nM | CC50 at 72 h [4]: 7760 nM | EC50 (Human alphaherpesvirus 2): 4.2 nM | EC50 (Human alphaherpesvirus 1 [5]): 1.8 nM | MCC at 72 h [7]: 4.4 µM | EC50 (Human alphaherpesvirus 1 [8]): 3 nM | EC50 (Human betaherpesvirus 5 [9]): 4.8 nM

CCCCCOC(=O)[C@@H](NP1(=O)CO[C@@H](Cn2cnc3c(N)ncnc32)CO1)[C@@H](C)CC (stereo partly drawn)
selectivity ratio [11]: 20000 | EC50 (Human alphaherpesvirus 3 [1]): 0.45 nM | selectivity ratio [12]: 1800 | selectivity ratio [13]: > 4400 | EC50 (Human betaherpesvirus 5 [2]): 7 nM | selectivity ratio [14]: 20000 | EC50 (Human alphaherpesvirus 3 [3]): 0.54 nM | CC50 at 72 h [4]: 12000 nM | EC50 (Human alphaherpesvirus 2): 2.7 nM | EC50 (Human alphaherpesvirus 1 [5]): 1.9 nM | selectivity ratio [15]: > 4400 | MCC at 72 h [7]: 9.96 µM | EC50 (Human alphaherpesvirus 1 [8]): 2 nM | EC50 (Human betaherpesvirus 5 [9]): 6.5 nM | selectivity ratio [16]: > 4400 | selectivity ratio [17]: 1800

CCCCCOC(=O)[C@H](CCSC)NP1(=O)CO[C@@H](Cn2cnc3c(N)ncnc32)CO1 (stereo partly drawn)
EC50 (Human alphaherpesvirus 3 [1]): 2.6 nM | EC50 (Human betaherpesvirus 5 [2]): 32 nM | EC50 (Human alphaherpesvirus 3 [3]): 4 nM | CC50 at 72 h [4]: 39600 nM | EC50 (Human alphaherpesvirus 2): 11 nM | EC50 (Human alphaherpesvirus 1 [5]): 5.7 nM | MCC at 72 h [7]: 4.11 µM | EC50 (Human alphaherpesvirus 1 [8]): 8.9 nM | EC50 (Human betaherpesvirus 5 [9]): 29 nM

CCCCCOC(=O)[C@H](Cc1ccccc1)NP1(=O)CO[C@@H](Cn2cnc3c(N)ncnc32)CO1 (stereo partly drawn)
EC50 (Human alphaherpesvirus 3 [1]): 0.52 nM | selectivity ratio [13]: > 4400 | EC50 (Human betaherpesvirus 5 [2]): 31 nM | EC50 (Human alphaherpesvirus 3 [3]): 3.2 nM | CC50 at 72 h [4]: 30600 nM | EC50 (Human alphaherpesvirus 2): 2.3 nM | EC50 (Human alphaherpesvirus 1 [5]): 1.5 nM | selectivity ratio [15]: > 4400 | MCC at 72 h [7]: 9.29 µM | EC50 (Human alphaherpesvirus 1 [8]): 3.5 nM | EC50 (Human betaherpesvirus 5 [9]): 17 nM | selectivity ratio [16]: > 4400

CCCCCOC(=O)[C@@H](NP(=O)(CO[C@H](CO)Cn1cnc2c(N)ncnc21)N[C@H](C(=O)OCCCCC)C(C)C)C(C)C
EC50 (Human alphaherpesvirus 3 [1]): 1.5 nM | EC50 (Human betaherpesvirus 5 [2]): 100 nM | EC50 (Human alphaherpesvirus 3 [3]): 0.95 nM | CC50 at 72 h [4]: 600 nM | EC50 (Human alphaherpesvirus 2): 2.8 nM | EC50 (Human alphaherpesvirus 1 [5]): 0.9 nM | half-life at 1 µM [6]: > 120 min | MCC at 72 h [7]: 8.57 µM | EC50 (Human alphaherpesvirus 1 [8]): 2.3 nM | EC50 (Human betaherpesvirus 5 [9]): 72 nM | half-life at 0.1 µM [10]: 4 min

CCCCCOC(=O)C[C@H](NP1(=O)CO[C@@H](Cn2cnc3c(N)ncnc32)CO1)C(=O)OCCCCC (stereo partly drawn)
EC50 (Human alphaherpesvirus 3 [1]): 1.4 nM | EC50 (Human betaherpesvirus 5 [2]): 27 nM | EC50 (Human alphaherpesvirus 3 [3]): 1.5 nM | CC50 at 72 h [4]: 2730 nM | EC50 (Human alphaherpesvirus 2): 2 nM | EC50 (Human alphaherpesvirus 1 [5]): 7.3 nM | half-life at 1 µM [6]: 22 min | MCC at 72 h [7]: 13.6 µM | EC50 (Human alphaherpesvirus 1 [8]): 3.2 nM | EC50 (Human betaherpesvirus 5 [9]): 9 nM | half-life at 0.1 µM [10]: 4 min

CCCCCOC(=O)CC[C@H](NP1(=O)CO[C@@H](Cn2cnc3c(N)ncnc32)CO1)C(=O)OCCCCC (stereo partly drawn)
EC50 (Human alphaherpesvirus 3 [1]): 0.58 nM | EC50 (Human betaherpesvirus 5 [2]): 14 nM | EC50 (Human alphaherpesvirus 3 [3]): 0.95 nM | CC50 at 72 h [4]: 520 nM | EC50 (Human alphaherpesvirus 2): 2.5 nM | EC50 (Human alphaherpesvirus 1 [5]): 1.2 nM | MCC at 72 h [7]: 13.2 µM | EC50 (Human alphaherpesvirus 1 [8]): 1.2 nM | EC50 (Human betaherpesvirus 5 [9]): 7.6 nM

CCCCCOC(=O)CC(NP1(=O)COC(Cn2cnc3c(N)ncnc32)CO1)C(=O)OCCCCC (single isomer, unassigned)
EC50 (Human alphaherpesvirus 3 [1]): 33 nM | EC50 (Human betaherpesvirus 5 [2]): 4390 nM | EC50 (Human alphaherpesvirus 3 [3]): 62 nM | CC50 at 72 h [4]: 11600 nM | EC50 (Human alphaherpesvirus 2): 110 nM | EC50 (Human alphaherpesvirus 1 [5]): 76 nM | MCC at 72 h [7]: > 18.5 µM | EC50 (Human alphaherpesvirus 1 [8]): 210 nM | EC50 (Human betaherpesvirus 5 [9]): 1620 nM

Nc1nc2c(ncn2COCCO)c(=O)[nH]1 [ACYCLOVIR]
MCC at 72 h [7]: > 88.8 µM

O=c1[nH]c(=O)n([C@H]2C[C@H](O)[C@@H](CO)O2)cc1/C=C/Br [BRIVUDINE]
EC50 (Human alphaherpesvirus 3 [1]): 53 nM | EC50 (Human alphaherpesvirus 3 [3]): 22100 nM | CC50 at 72 h [4]: > 300000 nM | EC50 (Human alphaherpesvirus 2): > 30000 nM | EC50 (Human alphaherpesvirus 1 [5]): > 30000 nM | MCC at 72 h [7]: > 30 µM

Nc1ccn(C[C@@H](CO)OCP(=O)(O)O)c(=O)n1 [CIDOFOVIR]
CC50 at 72 h [4]: > 358000 nM | EC50 (Human alphaherpesvirus 2): 2730 nM | EC50 (Human alphaherpesvirus 1 [5]): 1950 nM | MCC at 72 h [7]: > 71.6 µM | EC50 (Human alphaherpesvirus 1 [8]): 4180 nM

Nc1nc2c(ncn2COC(CO)CO)c(=O)[nH]1 [GANCICLOVIR]
EC50 (Human betaherpesvirus 5 [2]): 7410 nM | CC50 at 72 h [4]: > 319000 nM | EC50 (Human alphaherpesvirus 2): 51 nM | EC50 (Human alphaherpesvirus 1 [5]): > 29500 nM | MCC at 72 h [7]: > 39.2 µM

Nc1nc2c(ncn2CCC(CO)CO)c(=O)[nH]1 [PENCICLOVIR]
CC50 at 72 h [4]: > 395000 nM | EC50 (Human alphaherpesvirus 2): 840 nM | EC50 (Human alphaherpesvirus 1 [5]): > 79000 nM | MCC at 72 h [7]: > 79 µM | EC50 (Human alphaherpesvirus 1 [8]): 480 nM
